The test system of the experiment is Histamin-H2-Rezeptoren. Put plainly: Inhibition of histamine-stimulated gastric acid secretion in the conscious fistula cat. Type of experiment: in vivo. As to conditions: wache Fistelkatze; Stimulator: Histamin; i.V.

These results are taken from EP0181471A1, “Pyrazole derivatives, process for their preparation and medicaments containing them” (LUDWIG HEUMANN & CO GMBH, priority 1984, dated 1986).

Excerpt: Weiterhin kann die H2-antagonistische Wirkung an wachen Heidennain-Pouch-Hunden nach der Methode von Black et al., "Nature" 236, 385 (1972) und an wachen Fistelkatzen gezeigt werden.

For the compound `CN=C(NC#N)NCCSCc1nc[nH]c1C` [CIMETIDIN, Cimetidin], the ID50 was 1,4 umol/k^g.
